Laboratory results taken from patent US4855320A, “5-arylalkyl-4-alkoxy-2(5H)-furanones, intermediates and processes for the preparation thereof and medicaments containing them” (Dr. Willmar Schwabe GmbH & Company, priority 1986, dated 1989).
Where two headings read alike, the source gives them in different places.

Legend:
rats = test: Orientating toxicological investigations on rats; type: in vivo; details: up to an oral dosage of 1000 mg./kg.
[1] = system: maximum electroshock spasm (MES) in male mice (NMRI); test: MES test (maximum electroshock spasm), inhibition of the extensor spasm; type: in vivo; details: for responders at 100 mg/kg / ED50 / responders at 50 mg/kg: Mus musculus; for responders at 100 mg/kg / responders at 50 mg/kg: read-out: protective action after 1 hr. (MES test); for ED50: read-out: ED 50 in the MES test
[2] = Neurotoxicity observation (motility, muscle tonus, respiratory frequency, body temperature, general behaviour); set-up: species or system mice (NMRI); details: mouse, in vivo, po
Protocol: During the above-described experiments, the animals were observed during the whole of the experimental period (up to 4 hours) for signs of substance-caused changes of behaviour and neurotoxicity (motility, muscle tonus, respiratory frequency, body temperature and general behaviour).

[3] = po, 100 mg/kg p.o., mice, 1 hr., % of animals protected 100% against the extensor spasm
[4] = oral, mice, 1 hour after administration
[5] = read-out: Neurotoxic limiting dose in the mouse

For `COC1=CC(=O)O[C@H]1[C@H](O)c1ccccc1Cl` (relative stereo) [Example 64, threo-5-(2-chlorophenylhydroxymethyl)-4-methoxy-2(5H)-furanone], the mortality of rats (rats) was “no mortality of the animals”, the responders at 100 mg/kg [1, 3] was 100% and the ED50 [1, 4] was 19.8 mg/kg.

With `COC1=CC(=O)O[C@H]1[C@H](O)c1ccccc1` (relative stereo) [Example 65, threo-4-methoxy-5-phenylhydroxymethyl-2(5H)-furanone] the mortality of rats (rats) was “no mortality of the animals”, the responders at 100 mg/kg [1, 3] was 79% and the ED50 [1, 4] was 69 mg/kg.

With `COC1=CC(=O)O[C@H]1[C@H](O)c1ccc(Cl)cc1Cl` (relative stereo) [Example 79, threo-5-(2,4-dichlorophenylhydroxymethyl)-4-methoxy-2(5H)-furanone] the mortality of rats (rats) was “no mortality of the animals”, the responders at 100 mg/kg [1, 3] was 60% and the ED50 [1, 4] was 82.5 mg/kg.

With `COC1=CC(=O)O[C@H]1[C@H](O)c1cc(Cl)ccc1Cl` (relative stereo) [Example 81, threo-5-(2,5-dichlorophenylhydroxymethyl)-4-methoxy-2(5H)-furanone] the mortality of rats (rats) was “no mortality of the animals”, the responders at 100 mg/kg [1, 3] was 100% and the ED50 [1, 4] was 19.5 mg/kg.

For `CCC1(C)CC(=O)NC1=O` (stereo not shown) [Ethosuximide, reference compound], the responders at 100 mg/kg [1, 3] was 0%, the ED50 [1, 4] was > 250 mg/kg and the TD50 [2] was 500 mg/kg.

Work on `NC(=O)N1c2ccccc2C=Cc2ccccc21` [carbamazepine, reference compound] yielded a responders at 50 mg/kg ([1]; po, 50 mg/kg p.o., mice, 1 hr.) of 100%, an ED50 [1, 4] of 14.6 mg/kg and a TD50 [2] of 100 mg/kg.

Compound `O=C1NC(=O)C(c2ccccc2)(c2ccccc2)N1` [diphenylhydantoin, reference compound] has an ED50 ([1]; 1 h, (4 h), mice) of 9.1 mg/kg, a responders at 50 mg/kg ([1]; po, 50 mg/kg p.o., mice, 1 hr.) of 100% and a TD50 [2] of 100 mg/kg.

`CCCC(C)C1(CC)C(=O)NC(=O)NC1=O` (stereo not shown) [pentobarbital, reference compound] showed an ED50 ([1]; sc, 1 h) of 35.2 mg/kg and a TD50 [2, 5] of 60 mg/kg.

In the case of `CCC1(c2ccccc2)C(=O)NC(=O)NC1=O` [phenobarbital, reference compound], the ED50 ([1]; po, 1 h) was 19.2 mg/kg, the responders at 100 mg/kg ([1]; po, 1 h) was 100% and the TD50 [2, 5] was 60 mg/kg.

For `CCCC(CCC)C(=O)O` [valproic acid, reference compound], the ED50 ([1]; ip, 1 h) was 205 mg/kg, the responders at 100 mg/kg ([1]; po, 1 h) was 0% and the TD50 [2, 5] was 350 mg/kg.

With “threo-4-methoxy-5-(α-hydroxy-β-phenylethyl)-2(5H)-furanone [Example 104]” the “protective action after 1 hr. (MES test)” value ([1]; 100 mg/kg p.o., mice, 1 hr., % of animals protected 100% against the extensor spasm) was 37.5%.

With “threo-5-[1'-ethoxypropoxy-(2-chlorophenyl)-methyl]-4-methoxy-2-(5H)-furanone [Example 122]” the “protective action after 1 hr. (MES test)” value ([1]; 50 mg/kg p.o., mice, 1 hr.) was 100%.
